The test system of data set [1] is MCF-7 human breast cancer cells. Put plainly: alamarBlue cell viability assay. The format is cell-based. Particulars: Homo sapiens, 72 h. As to the method:
The human breast carcinoma cell line MCF-7 was purchased from the European Collection of Animal Cell Cultures (ECACC) and cultured in Eagles minimum essential medium with 10% foetal bovine serum, 2 mM L-glutamine, and 100 μg/mL penicillin/streptomycin. The medium was supplemented with 1% non-essential amino acids. The human breast carcinoma cell line MDA-MB-231 was purchased from the ECACC. MDA-MB-231 cells were maintained in Dulbecco’s modified Eagle’s medium (DMEM) supplemented with 10% (v/v) foetal bovine serum, 2 mM L-glutamine, and 100 μg/mL penicillin/streptomycin (complete medium). HL-60 cells were derived from a patient with acute myeloid leukaemia and were obtained from the ECACC (Salisbury, UK). Cells were cultured in RPMI-1640 Glutamax medium supplemented with 10% FCS media and 100 μg/mL penicillin/streptomycin. MCF-10A cells were obtained as a kind gift from Dr Susan McDonnell, School of Chemical and Bioprocess Engineering, University College Dublin and were cultured in Dulbecco’s Modified Eagle Medium: Nutrient Mixture F-12 (DMEM/F12; Gibco) supplemented with 5% horse serum (Invitrogen), 20 ng mL^−1 epidermal growth factor (Merck Millipore), 0.5 μg mL^−1 hydrocortisone (Sigma,-Aldrich, Arklow, Co. Wicklow, Ireland), 100 ng mL^−1 cholera toxin (Sigma, Aldrich, Arklow, Co. Wicklow, Ireland), 10 μg mL^−1 insulin (Sigma, Aldrich, Arklow, Co. Wicklow, Ireland), and penicillin/streptomycin 5000 U mL^−1 (1%)(Gibco, Biosciences, 3 Charlemont Terrace, Crofton Road, Dun Laoghaire, Co Dublin, A96 K7H7, Ireland). Cells were maintained at 37 °C in 5% CO2 in a humidified incubator. All cells were sub-cultured 3 times/week by trypsinisation using TrypLE Express (1×).
Cells were seeded at a density of 2.5 × 10^4 cells/well (MCF-7, MDA-MB-231, MCF-10A cells) and 1 × 10^4 cells/well (HL-60) in 96-well plates (200 μL per well). After 24 h, cells were then treated with either medium alone, vehicle control (1% ethanol (v/v)) or with serial dilutions of CA-4 (4a), phenstatin (7a) or selected compounds (0.001–100 μM) in triplicate. Cell proliferation for MCF-7, MDA-MB-231, and MCF-10A cells was analysed using the alamarBlue assay (Invitrogen Corp.) according to the manufacturer’s instructions. After 67–69 h, alamarBlue (10% (v/v)) was added to each well, and plates were incubated for 3–5 h at 37 °C in the dark. Fluorescence was read using a 96-well fluorimeter with excitation at 530 nm and emission at 590 nm. Results were expressed as percentage viability relative to vehicle control (100%).
Background: The colour change of resazurin is a common sign of viable cells or microbes.

[2] abbreviates: MCF7, read-out: cell viability (viable cells).

Here are results for 22 compounds from publication PMC7926793, “Synthesis and Biological Evaluation of 1-(Diarylmethyl)-1H-1,2,4-triazoles and 1-(Diarylmethyl)-1H-imidazoles as a Novel Class of Anti-Mitotic Agent for Activity in Breast Cancer” (Pharmaceuticals, 2021).

Molecules are shown by their SMILES.

Broadly, the melting point is the temperature, or range, at which the solid turns liquid. As a reminder, the viability is a read-out of living cells in per cent, often relative to untreated cells. What is called IC50 is the concentration that gives 50% inhibition.

The compound `Fc1ccc(C(c2ccccc2)n2cncn2)cc1` (stereo not drawn) [13c, 1-((4-Fluorophenyl)(Phenyl)Methyl)-1H-1,2,4-Triazole] registered a melting point of 96 to 99 °C. Same read-out and setting: with `O=C(Nc1ccc(C(c2ccccc2)n2cncn2)cc1)C(F)(F)F` (stereo not drawn) [13i, 2,2,2-Trifluoro-N-(4-(Phenyl(1H-1,2,4-Triazol-1-yl)Methyl)Phenyl)Acetamide] the figure was 143 to 145 °C; with `c1ccc(COc2ccc(C(c3ccccc3)n3cncn3)cc2)cc1` (stereo not drawn) [13j, 1-((4-(Benzyloxy)Phenyl)(Phenyl)Methyl)-1H-1,2,4-Triazole], 132 to 134 °C.

Compound `CCOc1ccc(C(c2ccccc2)n2cncn2)cc1` (stereo not drawn) [13l, 1-((4-Ethoxyphenyl)(Phenyl)Methyl)-1H-1,2,4-Triazole] registered a melting point of 98 to 100 °C. Turning to `Oc1ccc(C(c2ccccc2)n2cncn2)cc1` (stereo not drawn) [13n, 4-(Phenyl(1H-1,2,4-Triazol-1-yl)Methyl)Phenol], the melting point was in the range of 189 to 191 °C.

For the compound `Oc1ccc(C(c2ccc(O)cc2)n2cncn2)cc1` [13o], in data set [1] (setting [2]), the viability at 1 µM was determined as 68%. As to `COc1ccc(C(c2cc(OC)c(OC)c(OC)c2)n2cncn2)cc1` (stereo not drawn) [16c], the viability at 1 µM in data set [1] (setting [2]) was determined as 75%. `COc1cc(C(c2ccccc2)n2cncn2)cc(OC)c1OC` (stereo not drawn) [16e, 1-(Phenyl(3,4,5-Trimethoxyphenyl)Methyl)-1H-1,2,4-Triazole] had a melting point of 139 to 140 °C. `COc1cc(C(c2ccc(F)cc2)n2cncn2)cc(OC)c1OC` (stereo not drawn) [16g]: the viability at 1 µM in data set [1] (setting [2]) came out at 77%.

In turn, `COc1ccc(C(c2cc(OC)c(OC)c(OC)c2)n2cncn2)cc1OCc1ccccc1` (stereo not drawn) [19a, 1-((3-(Benzyloxy)-4-Methoxyphenyl)(3,4,5-Trimethoxyphenyl)Methyl)-1H-1,2,4-Triazole] had a melting point of 98 to 100 °C. With `COc1ccc(C(c2ccc(C#N)cc2)n2cncn2)cc1OCc1ccccc1` (stereo not drawn) [19f, 4-((3-(Benzyloxy)-4-Methoxyphenyl)(1H-1,2,4-Triazol-1-yl)Methyl)Benzonitrile], the melting point lay in the range of 91 to 93 °C. For the compound `N#Cc1ccc(C(c2ccc(OCc3ccccc3)cc2)n2cncn2)cc1` (stereo not drawn) [19g, 4-((4-(Benzyloxy)Phenyl)(1H-1,2,4-Triazol-1-yl)Methyl)Benzonitrile], the melting point fell in the range of 79 to 81 °C. As for `N#Cc1ccc(C(c2ccc(O)cc2)n2cncn2)cc1` (stereo not drawn) [19i, 4-((4-Hydroxyphenyl)(1H-1,2,4-Triazol-1-yl)Methyl)Benzonitrile], the IC50 in data set [1] (MCF7, 72 h, alamarBlue, read-out: Antiproliferative Activity MCF-7 Cells IC50) is more than 100 µM. As to `O=[N+]([O-])c1ccc(C(c2ccccc2)n2ccnc2)cc1` (stereo not drawn) [20b], the viability at 1 µM in data set [1] (setting [2]) was found to be 73%. On to `Brc1ccc(C(c2ccccc2)n2ccnc2)cc1` (stereo not drawn) [20c, 1-((4-Bromophenyl)(Phenyl)methyl)-1H-Imidazole], for which the melting point is 126 to 128 °C. For the compound `Fc1ccc(C(c2ccccc2)n2ccnc2)cc1` (stereo not drawn) [20d], in data set [1] (setting [2]), the viability at 1 µM was 67%. Consider `COc1cc(C(c2cc(OC)c(OC)c(OC)c2)n2ccnc2)cc(OC)c1OC` [21i, 1-(Bis(3,4,5-Trimethoxyphenyl)Methyl)-1H-Imidazole], for which the melting point is 154 to 156 °C.

`Brc1ccc(C(c2ccccc2)N2CCCC2)cc1` (stereo not drawn) [25b, 1-((4-Bromophenyl)(Phenyl)methyl)Pyrrolidine]: the melting point fell in the range of 70 to 72 °C.

`COc1ccc(C(c2ccccc2)N2CCCC2)cc1` (stereo not drawn) [25d]: the viability at 1 µM in data set [1] (setting [2]) came out at 80%. With `COc1ccc(C(c2cc(OC)c(OC)c(OC)c2)N2CCN(c3ccc(C)cc3)CC2)cc1` (stereo not drawn) [27f], the viability at 0.1 µM in data set [1] (MCF7, 0.1 μM, read-out: cell viability (viable cells)) came to 84%. In data set [1] (setting [2]), the viability at 1 µM was found to be 76% and the viability at 10 µM stood at 42%. `COc1ccc(C(c2cc(OC)c(OC)c(OC)c2)N2CCN(c3ccccc3)CC2)cc1OCc1ccccc1` (stereo not drawn) [27g, 1-((3-(Benzyloxy)-4-Methoxyphenyl)(3,4,5-Trimethoxyphenyl)Methyl)-4-Phenylpiperazine] showed a melting point of 124 to 126 °C.

Consider `COc1ccc(C(c2cc(OC)c(OC)c(OC)c2)N2CCN(c3ccccc3)CC2)cc1O` (stereo not drawn) [27i, 2-Methoxy-5-((4-Phenylpiperazin-1-yl)(3,4,5-Trimethoxyphenyl)Methyl)Phenol], for which, in data set [1] (setting [2]), the viability at 10 µM is 48%.
